Patent publication US20220233556A1, “COMPOSITIONS AND METHODS FOR TREATING OPHTHALMIC CONDITIONS” (Medicon Pharmaceuticals, Inc., priority 2017, published 2022)
Where two headings read alike, the source gives them in different places.

Columns and labels:
[1] = PS biodistribution after topical alternative gellan gum-based in-situ gel; assay type: in vivo, New Zealand white rabbits; conditions: New Zealand white, rabbit, alternative gellan gum 0.4% gel
Description: Composition: 2.4-3% PS; 0.4% Gellan gum; 10% Vitamin E TPGS; 5% (2-hydroxypropyl)-β-cyclodextrin.
Results: PS in this formulation was administered topically to the eyes of New Zealand white rabbits and its biodistribution was determined as above.

[2] = system: oxygen-induced retinopathy; test: Mouse model of oxygen-induced retinopathy; assay type: in vivo, C57BL/6 mice; conditions: intravitreal 1 μl PS solution on P12, retina on P17, vs vehicle
Text: Several animal models have been explored to understand retinal vascular development. The mouse model of oxygen-induced retinopathy is the most widely used, and has played a pivotal role in our understanding of retinal angiogenesis and in the development of therapeutics such as anti-vascular endothelial growth factor injections for wet age-related macular degeneration.
C57BL/6 mice were reared in 75±2% oxygen air starting on postnatal day 7 (P7) and moved into room air on P12, when they were injected intravitreally with 1 μl of […] PS solution or vehicle. The PS solution consisted of 4.0% PS, 20% Poloxamer 407 and 12% VETPGS (d-α-tocopheryl polyethylene glycol 1000 succinate). On P17, the pups were euthanized, both eyes were enucleated and fixed with 4% paraformaldehyde (PFA). Following several intermediate steps, the retina was existed and fixed further with 4% PFA overnight. After appropriate washings, the retina was incubated with 10 μg/ml of FITC-conjugated anti-lectin antibody overnight and retina flat-mounts were prepared on glass slides and evaluated by fluorescence microscopy. The areas of the avascular, neovascular and whole retina were determined using ImageJ software.

[3] = PS levels in ocular tissues (HPLC) after topical 3.5% PS Vitamin E TPGS solution; assay type: in vivo, New Zealand white rabbits; conditions: New Zealand white, rabbit, 3.5 % PS solution (eye drops)
Description: Composition: 3.5% PS; 16% Vitamin E TPGS (d-α-tocopheryl polyethylene glycol 1000 succinate); 3.18% mannitol; 1.2% boric acid; 0.005% polyquaternium-1 (Polyquad). Alternatively, vitamin E TPGS may be replaced by other solubilizing agents. Polyquad is added as a preservative.
Preparation Method: Polyquad and Vitamin E TPGS were dissolved in purified water followed by addition of PS and stirring at 70° C. for 30 min. Then the solution was centrifuged to remove non-dissolved drug particles and the supernatant was collected, to which mannitol and boric acid were added. The final volume was adjusted with purified water after adjusting the pH to 6.7±0.2 with NaOH.
Results: The above PS formulation was administered topically as eye drops to the eyes of New Zealand white rabbits. The levels of PS in ocular tissues 1 h and 3 h later were determined by HPLC.

[4] = Biodistribution of PS in human cadaveric eyes (ex vivo), PS HP-β-CD solution; assay type: in vitro ADME; conditions: human eye ex vivo
Description: Human cadaveric eyes were obtained through the Lions Eye Bank for Long Island, Valley Stream, N.Y. They were preserved on ice and used within 2 h from removal from the donors.
In another similar study, the anterior surface of the human eye was brought into direct contact with a PS HP-β-CD solution (PS concentration at 0.5%, 2.0% and 3.3%) and incubated for 10 min at 37° C. The eye was then rinsed with 10% dimethylsulfoxide (DMSO) to remove residual PS from the surface of the eye and incubated in PBS for 60 min. […] At the specified times, ocular tissues were dissected and PS levels determined by HPLC.

[5] = aqueous humor, read-out: PS in Aqueous humor
[6] = conjunctiva, read-out: PS in Conjunctiva
[7] = choroid, read-out: PS in Choroid

`CCOP(=O)(OCC)OCCCCOC(=O)CC1=C(C)/C(=C/c2ccc([S+](C)[O-])cc2)c2ccc(F)cc21` (centres unmarked) [PS, phosphosulindac] gave a concentration at 0.5 h [1, 5] of 600 nM, a concentration at 1 h [1, 5] of 400 nM and a concentration at 0.5 h [1, 6] of 37700 nM. The concentration at 1 h [1, 6] was 20800 nM, the concentration at 3 h [1, 6] was 700 nM and the concentration at 5 h [1, 6] was 1100 nM. The concentration at 8 h [1, 6] was 700 nM, the concentration at 0.5 h ([1]; cornea, read-out: PS in Cornea) was 24300 nM and the concentration at 1 h ([1]; cornea, read-out: PS in Cornea) was 50800 nM. For the same molecule, the concentration at 3 h ([1]; cornea, read-out: PS in Cornea) was 1500 nM, the concentration at 5 h ([1]; cornea, read-out: PS in Cornea) was 1100 nM and the concentration at 8 h ([1]; cornea, read-out: PS in Cornea) was 1600 nM. The “inhibition of peripheral neovascularization” value [2] was 36%, the “reduction of central avascular area” value [2] was 51% and the concentration at 1 h [3, 5] was 2300 nM. It also gave a concentration at 3 h [3, 5] of 100 nM, a concentration at 1 h [3, 7] of 3200 nM and a concentration at 3 h [3, 7] of 200 nM. For the same molecule, the concentration at 1 h [3, 6] was 9300 nM, the concentration at 3 h [3, 6] was 500 nM and the concentration at 1 h ([3]; cornea, read-out: PS in Cornea) was 6900 nM. It also gave a concentration at 3 h ([3]; cornea, read-out: PS in Cornea) of 800 nM, a concentration at 3 h ([3]; iris, read-out: PS in Iris) of 900 nM and a concentration at 3 h ([3]; lacrimal gland, read-out: PS in Lacrimal gland) of 500 nM. For the same molecule, the concentration at 1 h ([3]; lens, read-out: PS in Lens) was 1800 nM, the concentration at 3 h ([3]; lens, read-out: PS in Lens) was 100 nM and the concentration at 1 h ([3]; retina, read-out: PS in Retina) was 2700 nM. The concentration at 3 h ([3]; retina, read-out: PS in Retina) was 200 nM, the concentration at 1 h ([3]; sclera, read-out: PS in Sclera) was 2300 nM and the concentration at 3 h ([3]; sclera, read-out: PS in Sclera) was 200 nM. The concentration at 1 h ([3]; vitreous body, read-out: PS in Vitreous body) was 3600 nM, the “PS in Aqueous” value ([4]; 0.5% PS HP-β-CD solution) was 2.4 µM and the “PS in Lens” value ([4]; 0.5% PS HP-β-CD solution) was 0.6 µM. For the same molecule, the “PS in Retina” value ([4]; 0.5% PS HP-β-CD solution) was 2.9 µM, the “PS in Vitreous” value ([4]; 0.5% PS HP-β-CD solution) was 0.3 µM and the “PS in Lens” value ([4]; 2.0% PS HP-β-CD solution) was 1.4 µM. The “PS in Lens” value ([4]; 3.3% PS HP-β-CD solution) was 1.9 µM and the “PS in Vitreous” value ([4]; 3.3% PS HP-β-CD solution) was 4.3 µM.
